# Measured values taken from patent US7972629B2, “Product comprising a combination of milk serum apoproteins and free fatty acids” (Westgate Biological Ltd., priority 2001, dated 2011).
# Columns and labels:
# Format in all cases: cell-based
# [1] = tested on: methicillin resistant Staphylococcus aureus (MRSA); assay: Adhesion of MRSA to Buccal Epithelial Cells; conditions: 5 mg/ml, Diagram 11
# Method: (§1) The basis of the technique involves exposing a standardised (known) number of yeast or bacteria to a standardised substrate (number of BEC's), allowing a 60 minute incubation period for the cells to adhere and then filtering the combined population through a 10 micron nylon mesh. The mesh will retain BEC's and those yeast or bacteria adhering to them, non-adhering yeast or bacteria will be washed through, where they may be enumerated in the filtrate and expressed as a percentage of the original population not adhering; percent adherence being the inverse of this.
# Fluorescent labelling of bacteria is conducted after adhesion (on those cells in the filtrate) using fluorescent dyes such as BCECF/AM (Calbiochem Biosciences Inc., La Jolla, Calif.) and Syto 13 (Molecular Probes, Oregon, USA). Labelling methods are as described by the manufacturers of the dyes. The amount of fluorescence is measured in a fluorimeter (Fluroscan from Lab-Systems, Helsinki, Finland) and is in direct relationship to the number of bacteria present.
# (§2) The following general method may be used to measure adherence of the yeast Candida albicans to BEC and the inhibition of that adherence using the formulation of milk serum apoprotein(s) as described above. The same general method is suitable for measuring inhibition of adherence of Staphylococcus aureus to BEC's and also inhibition of adherence of Streptococcus mutans, with the exception that the substrate for Streptococcus mutans, is powdered hydroxylapatite available from Merck and used as a surrogate for dental enamel.
# MRSA is routinely sub-cultured on blood agar and a single colony is used to inoculate a tube of Oxoid Brain Heart Infusion Broth as described in Methods and Materials above. After 8 hours, the innoculum is used in growth and adhesion assays using the methodologies described above.
# MRSA adheres to BEC's, and these are used here in a manner similar to that described for Candida albicans. […] Bovine Serum Albumin is used as a ‘protein blank’ and this material has no effect on the adhesion of MRSA to BEC's.
# Streptococcus mutans = assay: Adhesion of Streptococcus mutans to hydroxyapatite beads; conditions: 0.8 mg/ml; saliva coated hydroxyapatite; Diagram 13
# Description: as §2
# In measuring inhibition of adherence of Streptococcus mutans, hydroxyapatite powder from Merck was used as a surrogate for dental enamel. The test procedure is as described in Methods and Materials above, with the following modifications: 1 ml of fresh culture, adjusted to an optical density of 0.1 at 600 nm, is added to 5 mg of saliva coated hydroxyapatite beads; allowed to adhere for 1 hour; and centrifuged at slow speed to sediment the hydroxyapatite with adhering bacteria. The number of bacteria remaining in the supernatant are that percentage of the original population not adhering and are expressed as a percentage of the original population; the inverse being […].
# Candida albicans = assay: Adhesion of Candida albicans to Buccal Epithelial Cells (adhesion assay); conditions: 1 mg/ml; yeast pre-treated 10 minutes; Diagram 8
# Description: Measurement of adhesion, and inhibition of the same, requires selection of a suitable substrate and a method of enumerating number of organisms adhering (or not) to that substrate. Most potential pathogenic organisms adhere to mucosal epithelial cells and a convenient source of a representative mucosal epithelial cell may be easily harvested from inside the cheek. Buccal epithelial cells (BEC's) are harvested by scraping the mucosal membranes in the mouth using a wooden tongue depresser as follows.
# Standard wooden tongue depressers as used in clinical examination of the mouth are wrapped, in tin foil and autoclaved. […]
# as §1, with “this. […]” for “this.”
# Both the washed BEC's and the freshly grown washed yeast cells are counted microscopically and the concentrations adjusted such that the yeast is in the order of 1×10^5 and BEC's at 1×10^3. […]
Molecule,inhibition of adhesion of MRSA to Buccal Epithelial Cell [1],inhibition of adhesion of MRSA to Buccal Epithelial Cell ([1]; listed as Sodium citrate),inhibition of adhesion of Streptococcus mutans to hydroxyapatite beads (Streptococcus mutans) [%],inhibition of adhesion of Candida albicans to Buccal Epithelial Cell (Candida albicans) [%]
O=C([O-])CC(O)(CC(=O)[O-])C(=O)[O-].[Na+].[Na+].[Na+] [sodium citrate],approximately 10%,no effect on adhesion,~10,
"Bovine Serum Albumin: protein blank in Diagrams 8, 11 and 13",no effect,,~30,13
